Assay results: US20020061346A1, “FOOD COMPOSITION” (priority 1998, published 2002)

Assay: Post-prandial study: carotenoid levels in triglyceride-rich blood fractions after a tomato-based meal with plant sterols
Type: in vivo, human
Settings: 20 healthy adult volunteers; single meal with 130 g chunky tomato sauce (5.2 mg lycopene, 2.2 mg beta-carotene) and 2.2 g plant sterols; blood samples over 8 hours; pre-meal level taken as zero
Method: A post-prandial study was undertaken, in which 20 healthy, adult, human volunteers, 10 male, 10 female (age 30-65) were provided with an early-morning tomato-based meal, after which at regular intervals and for a period of 8 hours blood samples were taken. In the triglyceride-rich fractions (mainly consisting of chylomicrons that carry the digested fat and fat-soluble components from the intestine to the liver) of those blood samples the levels of lycopene, beta-carotene and also vitamin A were determined (using straight-phase HPLC analysis using a nucleosil cyanyl-bonded column). The levels of vitamin A (measured as retinyl palmitate) and beta-carotene can be taken together as a measure for beta-carotene uptake, as during absorption (or shortly thereafter) beta-carotene is partly converted into vitamin A. The integrated post-prandial response can then be used to estimate the bioavailability of beta-carotene and lycopene from a meal.
The meal consisted of 200 g of cooked macaroni, 130 g of chunky tomato sauce (containing more chunks of tomato flesh than most commercial tomato sauces) made of yellow, orange and super red varieties, 80 g of lean cooked ham (gammon), 20 g of white bread, and 11.6 g of sunflower oil (stripped, i.e. low in antoixidants) and 2.2 g of plansterols. […]

Row | post-prandial response (level in triglyceride-rich blood fractions, FIG. 1) | Compound
1 | clear post-prandial response | CC(C)=CCC/C(C)=C/C=C/C(C)=C/C=C/C(C)=C/C=C/C=C(C)/C=C/C=C(C)/C=C/C=C(\C)CCC=C(C)C [lycopene]
2 | clear post-prandial response | CC1=C(/C=C/C(C)=C/C=C/C(C)=C/C=C/C=C(C)/C=C/C=C(C)/C=C/C2=C(C)CCCC2(C)C)C(C)(C)CCC1 [beta-carotene]
